“Also recorded” adds a separate entry of the source. Square brackets hold non-standard residues; d marks the D form. Ends that are not written are not given here. Peptide text beside a SMILES is read from it. Phe(4-NO2) = N[C@@H](Cc1ccc([N+](=O)[O-])cc1)C(=O)O; Phe(4-F) = N[C@@H](Cc1ccc(F)cc1)C(=O)O; Bta = N[C@@H](Cc1csc2ccccc12)C(=O)O; Nle = CCCC[C@H](N)C(=O)O; Nva = CCC[C@H](N)C(=O)O
What was measured:
HLA-A*0201 = HLA-A*0201 (Homo sapiens, UniProt P04439, D140Y/D185E/D98H/E176V/E277Q/G131W/G231S/I119V/I121R/I166T/I218V/L300P/L318F/N151K/N90K/P208A/P217A/Q86G/Q94H/R138H/R169H/T345S); test: Peptide binding using T2 cells; details: half maximal binding of wild-type peptide relative to analog;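 further: Read-out is peptide-induced stabilization of HLA-A*0201 on the cell surface, reflecting mainly Kon at limiting peptide levels and both Kon and Koff at saturating levels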
Description: Thus, at limiting concentrations of peptide, it is a measurement of Kon mostly and at saturation levels of peptide it is a measurement of both Kon and Koff.
Thus, at limiting concentrations of peptide, this is a measurement of Kon mostly and at saturation levels of peptide that is a measurement of both Kon and Koff.

[1] = system: T cell lines against natural epitope SSX-241-49; test: Cross-reactivity and functional avidity: IFN-gamma production by T cell lines raised against natural SSX-2 41-49; type: cell-based, HHD transgenic mice; details: for Cross-reactivity and fct avidity (native to analogs)*: T cells raised to native peptide tested on analogs, footnote * and unit not given; for activity in cross-reactivity assay (IFN-gamma production by wild-type SSX-2 41-49 specific T cells), in words: compared with wild-type peptide;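 on all read-outs here: analogs presented ex vivo by competent APCs to T cells specific for the non-mutated epitope, scored by lowest activating concentration, peak cytokine effect and concentration at that peak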

| Compound | Relative affinity (1/RA) (HLA-A*0201) | Cross-reactivity and fct avidity (native to analogs)* [1] | activity in cross-reactivity assay (IFN-gamma production by wild-type SSX-2 41-49 specific T cells), in words [1] |
| --- | --- | --- | --- |
| CCC[C@H](NC(=O)[C@H](CCCCN)NC(=O)[C@H](CCC(=O)O)NC(=O)[C@H](CO)NC(=O)[C@@H](NC(=O)[C@@H](N)Cc1ccccc1)C(C)C)C(=O)N[C@@H](Cc1ccccc1)C(=O)N[C@@H](Cc1ccc(O)cc1)C(=O)N[C@H](C(=O)O)C(C)C [SSX2 41-49 (K41F, A42V, I46Nva), FVSEK(Nva)FYV] (H-FVSEK[Nva]FYV-OH) | 2.4 | 1 | – |
| CC[C@H](C)[C@H](NC(=O)[C@H](CCCCN)NC(=O)[C@H](CCC(=O)O)NC(=O)[C@H](CO)NC(=O)[C@@H](NC(=O)[C@@H](N)Cc1ccccc1)C(C)C)C(=O)N[C@@H](Cc1ccccc1)C(=O)N[C@@H](Cc1ccccc1)C(=O)N[C@H](C(=O)O)C(C)C [SSX2 41-49 (K41F, A42V, Y48F)] | 1.7 | 10 | – |
| CC[C@H](C)[C@H](NC(=O)[C@H](CCCCN)NC(=O)[C@H](CCC(=O)O)NC(=O)[C@H](CO)NC(=O)[C@H](C)NC(=O)[C@@H](N)Cc1csc2ccccc12)C(=O)N[C@@H](Cc1ccccc1)C(=O)N[C@@H](Cc1ccc(O)cc1)C(=O)N[C@H](C(=O)O)C(C)C [SSX2 41-49 (K41(b-(3-benzothienyl)Ala))] (H-[Bta]ASEKIFYV-OH) | 0.6 | 10 | – |
| FVSEKIFSV [SSX2 41-49 (K41F, A42V, Y48S)] | 3.9 | >10 | – |
| WMSEKIFYV-OH [SSX2 41-49 (K41W, A42M)] | 2.9 | 1 | – |
| KMSEKIFYV [SSX2 41-49 (A42M)] | 1.7 | 0.1 | – |
| FVSEKIFYV [SSX2 41-49 (K41F, A42V)] | 3.1 | 0.1 | – |
| CC[C@H](C)[C@H](NC(=O)[C@H](CCCCN)NC(=O)[C@H](CCC(=O)O)NC(=O)[C@H](CO)NC(=O)[C@H](C)NC(=O)[C@@H](N)Cc1ccc([N+](=O)[O-])cc1)C(=O)N[C@@H](Cc1ccccc1)C(=O)N[C@@H](Cc1ccc(O)cc1)C(=O)N[C@H](C(=O)O)C(C)C [SSX2 41-49 (K41(Phe-4NO2))] (H-[Phe(4-NO2)]ASEKIFYV-OH) | 1.1 | 3 | – |
| FVSEKIFY(Aib) [SSX2 41-49 (K41F, A42V, V49Aib)] | – | >10 | – |
| CC[C@H](C)[C@H](NC(=O)[C@H](CCCCN)NC(=O)[C@H](CCC(=O)O)NC(=O)[C@H](CO)NC(=O)[C@H](CCSC)NC(=O)[C@@H](N)Cc1ccccc1)C(=O)N[C@@H](Cc1ccccc1)C(=O)N[C@@H](Cc1ccc(O)cc1)C(=O)N[C@H](C(=O)O)C(C)C [SSX2 41-49 (K41F, A42M)] | – | 3 | – |
| FVSEKIFTV-OH [SSX2 41-49 (K41F, A42V, Y48T)] | 3.8 | >10 | – |
| CC[C@H](C)[C@H](NC(=O)[C@H](CCCCN)NC(=O)[C@H](CCC(=O)O)NC(=O)[C@H](CO)NC(=O)[C@@H](NC(=O)[C@@H](N)Cc1ccc(O)cc1)[C@@H](C)CC)C(=O)N[C@@H](Cc1ccccc1)C(=O)N[C@@H](Cc1ccc(O)cc1)C(=O)N[C@H](C(=O)O)C(C)C [SSX2 41-49 (K41Y, A42I)] | – | 1 | – |
| FVSEKLFSA | 2.4 | >10 | – |
| KVSEKIFYI [SSX2 41-49 (A42V, V49I)] | – | 0.3 | – |
| CCCC[C@H](NC(=O)[C@H](CCCCN)NC(=O)[C@H](CCC(=O)O)NC(=O)[C@H](CO)NC(=O)[C@@H](NC(=O)[C@@H](N)Cc1ccccc1)C(C)C)C(=O)N[C@@H](Cc1ccccc1)C(=O)N[C@@H](Cc1ccc(O)cc1)C(=O)N[C@H](C(=O)O)C(C)C [SSX2 41-49 (K41F, A42V, I46Nle), FVSEK(Nle)FYV] (H-FVSEK[Nle]FYV-OH) | 1.1 | 10 | – |
| CC[C@H](C)[C@H](NC(=O)[C@H](CCCCN)NC(=O)[C@H](CCC(=O)O)NC(=O)[C@H](CO)NC(=O)[C@H](C)NC(=O)[C@@H](N)Cc1c[nH]c2ccccc12)C(=O)N[C@@H](Cc1ccccc1)C(=O)N[C@@H](Cc1ccc(O)cc1)C(=O)N[C@H](C(=O)O)C(C)C [SSX2 41-49 (K41W)] | – | >10 | – |
| CC[C@H](C)[C@H](NC(=O)[C@H](CCCCN)NC(=O)[C@H](CCC(=O)O)NC(=O)[C@H](CO)NC(=O)[C@H](C)NC(=O)[C@@H](N)Cc1ccc(OC)cc1)C(=O)N[C@@H](Cc1ccccc1)C(=O)N[C@@H](Cc1ccc(O)cc1)C(=O)N[C@H](C(=O)O)C(C)C [SSX2 41-49 (K41(O-methyl Tyr))] (H-Y(Me)ASEKIFYV-OH) | 0.8 | 3 | – |
| KLSEKIFYI [SSX2 41-49 (A42L, V49I)] | 2.6 | 0.03 | – |
| CC[C@H](C)[C@H](NC(=O)[C@H](CCCCN)NC(=O)[C@H](CCC(=O)O)NC(=O)[C@H](CO)NC(=O)[C@H](C)NC(=O)[C@@H](N)Cc1ccc(F)cc1)C(=O)N[C@@H](Cc1ccccc1)C(=O)N[C@@H](Cc1ccc(O)cc1)C(=O)N[C@H](C(=O)O)C(C)C [SSX2 41-49 (K41(Phe-4F))] (H-[Phe(4-F)]ASEKIFYV-OH) | – | 3 | – |

| Compound | Relative affinity (1/RA) (HLA-A*0201) | Cross-reactivity and fct avidity (native to analogs)* [1] | activity in cross-reactivity assay (IFN-gamma production by wild-type SSX-2 41-49 specific T cells), in words [1] |
| --- | --- | --- | --- |
| CCC[C@H](NC(=O)[C@@H](N)CCCCN)C(=O)N[C@@H](CO)C(=O)N[C@@H](CCC(=O)O)C(=O)N[C@@H](CCCCN)C(=O)N[C@H](C(=O)N[C@@H](Cc1ccccc1)C(=O)N[C@@H](Cc1ccc(O)cc1)C(=O)N[C@H](C(=O)O)C(C)C)[C@@H](C)CC [SSX2 41-49 (A42(Nva)), KNvaSEKIFYV] | – | 0.1 | – |
| CC[C@H](NC(=O)[C@@H](N)CCCCN)C(=O)N[C@@H](CO)C(=O)N[C@@H](CCC(=O)O)C(=O)N[C@@H](CCCCN)C(=O)N[C@H](C(=O)N[C@@H](Cc1ccccc1)C(=O)N[C@@H](Cc1ccc(O)cc1)C(=O)N[C@H](C(=O)O)C(C)C)[C@@H](C)CC [SSX2 41-49 (A42(Abu)), KAbuSEKIFYV] | – | 0.3 | – |
| CC[C@H](C)[C@H](NC(=O)[C@H](CCCCN)NC(=O)[C@H](CCC(=O)O)NC(=O)[C@H](CO)NC(=O)[C@H](CC(C)C)NC(=O)[C@@H](N)Cc1ccccc1)C(=O)N[C@@H](Cc1ccccc1)C(=O)N[C@@H](Cc1ccc(O)cc1)C(=O)N[C@H](C(=O)O)C(C)C [SSX2 41-49 (K41F, A42L)] | – | 0.3 | – |
| CC[C@H](C)[C@H](NC(=O)[C@H](CCCCN)NC(=O)[C@H](CCC(=O)O)NC(=O)[C@H](CO)NC(=O)[C@H](C)NC(=O)[C@@H](N)CCCCN)C(=O)N[C@@H](Cc1ccccc1)C(=O)N[C@@H](Cc1ccc(O)cc1)C(=O)N[C@H](C(=O)O)C(C)C [SSX2 41-49, reference compound] | – | 1 | – |
| KLSEKIFYV [SSX2 41-49-NH2 (A42L)] | – | 3 | lower concentration |
| K(D-Ala)SEKIFYV [SSX2 41-49 (A42(D-Ala))] | – | 10 | – |
| YLSEKIFYV-OH [SSX2 41-49 (K41Y, A42L)] | 1.2 | – | – |
| CC[C@H](C)[C@H](NC(=O)[C@H](CCCCN)NC(=O)[C@H](CCC(=O)O)NC(=O)[C@H](CO)NC(=O)[C@H](CC(C)C)NC(=O)[C@H](N)CCCCN)C(=O)N[C@@H](Cc1ccccc1)C(=O)N[C@@H](Cc1ccc(O)cc1)C(=O)N[C@H](C(=O)O)C(C)C [SSX2 41-49 (K41(D-Lys), A42L)] | – | 10 | – |
| KASEKIFYV [SSX2 41-49-NH2] | – | >10 | – |
| FVSEKLFTA | – | >10 | – |
| CC[C@H](C)[C@H](NC(=O)[C@H](CCCCN)NC(=O)[C@H](CCC(=O)O)NC(=O)[C@H](CO)NC(=O)[C@@H](NC(=O)[C@@H](N)Cc1ccccc1)C(C)C)C(=O)N[C@@H](Cc1ccccc1)C(=O)N[C@@H](Cc1ccc(O)cc1)C(=O)N[C@@H](CC(C)C)C(=O)O [SSX2 41-49 (K41F, A42V, V49L)] | – | >10 | – |
| FVSNKIFYV [SSX2 41-49 (K41F, A42V, E44N)] | – | >10 | – |
| CC[C@H](C)[C@H](NC(=O)[C@H](CCCCN)NC(=O)[C@H](CCC(=O)O)NC(=O)[C@H](CO)NC(=O)[C@@H](NC(=O)[C@H](N)CCCCN)C(C)C)C(=O)N[C@@H](Cc1ccccc1)C(=O)N[C@@H](Cc1ccc(O)cc1)C(=O)N[C@H](C(=O)O)C(C)C [SSX2 41-49 (K41(D-Lys), A42V)] | – | 10 | – |
| FVSEKVFYV (T cell peptide epitope analog) [SSX2 41-49 (K41F, A42V, I46V)] | – | 1 | – |
| K(D-Val)SEKIFYV [SSX2 41-49 (A42(D-Val))] | – | 3 | – |
| CC[C@H](C)[C@H](NC(=O)[C@H](CCCCN)NC(=O)[C@H](CCC(=O)O)NC(=O)[C@H](CO)NC(=O)[C@H](CC(C)C)NC(=O)[C@@H](N)CCCCN)C(=O)N[C@@H](Cc1ccccc1)C(=O)N[C@@H](Cc1ccc(O)cc1)C(=O)N[C@H](C(=O)O)C(C)C [SSX2 41-49 (A42L)] | – | 0.03 | – |
| CC[C@H](C)[C@H](NC(=O)[C@H](CCCCN)NC(=O)[C@H](CCC(=O)O)NC(=O)[C@H](CO)NC(=O)[C@@H](NC(=O)[C@@H](N)Cc1c[nH]c2ccccc12)[C@@H](C)CC)C(=O)N[C@@H](Cc1ccccc1)C(=O)N[C@@H](Cc1ccc(O)cc1)C(=O)N[C@H](C(=O)O)C(C)C [SSX2 41-49 (K41W, A42I)] | – | 0.1 | – |
| KASEKIFYVY (T cell peptide epitope analog) [SSX-241-50, wild-type SSX-2 41-50 decamer, reference compound] | – | – | no immunological activity; also recorded: significantly less active |

Reference: patent US7511119B2, “PRAME peptide analogues” (MannKind Corporation, priority 2005, dated 2009)
